From patent US9676789B2, “Aminated derivative of homoharringtonine, preparation method therefor, and application thereof” (HANGZHOU BENSHENG PHARMACEUTICAL CO., LTD., priority 2011, dated 2017)
Converted amounts (≈) assume the structure as drawn.

Legend:
[1] = system: RPMI8226 (multiple myeloma); experiment: MTT multiple myeloma cell growth inhibition, 72 h; type: cell-based, human; conditions: Homo sapiens, RPMI-8226, RPMI8226, 72 h; for IC50: read-out: IC50; for IC90: read-out: IC90
Protocol: Multiple myeloma and lymphoma cell lines: RPMI8226 (multiple myeloma), purchased from Fuxiang Bio-tech Co. Ltd., Shanghai, China.
(§1) Obtaining 6000 well-growing leukemia cells and inoculating them into wells of a 96-well cell culture plate. The culture medium is the 1640 cell culture medium containing 10% fetal bovine serum. After adding the homoharringtonine derivatives of different concentrations and mixing uniformly, placing the plate in a carbon dioxide cell incubator (5% CO2) at 37° C. and incubating for 72 hours. Then the viable cell concentration is determined by the MTT method.

MG63 (osteosarcoma) = experiment: MTT solid tumor cell growth inhibition, 72 h; type: cell-based, human; conditions: Homo sapiens, MG 63, 72 h; for IC50: read-out: IC50; for IC90: read-out: IC90
Protocol: (§2) Human solid tumor cell lines: Hep-2 ([…]), A549 (human lung cancer), CaES-17 (esophageal cancer cell), PC-3 (prostate cancer), CNE (nasopharyngeal carcinoma cell), and SK-OV-3 (ovarian cancer cell), all of which are purchased from China Center For Type Culture Collection; RKO (human colon adenocarcinoma cell), MGC 803 (human gastric cancer cell), MG63 (osteosarcoma) and U87 MG (malignant glioma cell), all of which are purchased from Fuxiang Bio-tech Co. Ltd., Shanghai, China; PANC-1 (pancreatic cancer), Huh7 (human liver cancer cell), Becap37 (human breast cancer cell), and Hela (human cervical cancer cell), all of which are donated by Cancer Research Institute of Zhejiang University, China.
(§3) Obtaining 4000 well-growing human solid tumor cells and inoculating them into wells of a 96-well cell culture plate. The culture medium is DMEM High Glucose cell culture medium containing 10% fetal bovine serum. The plate is placed in a carbon dioxide cell incubator (5% CO2) at 37° C. and incubating for 24 hours. After adding the homoharringtonine derivatives of different concentration and mixing uniformly, the plate is placed in a carbon dioxide cell incubator (5% CO2) at 37° C. and incubating for 72 hours. Then the viable cell concentration is determined by the MTT method and the cell viability (%) after drug treatment is calculated. In this experiment, the cell viability of control group (not treated with any compound) is set as 100%.

[2] = system: PANC-1 (pancreatic cancer); experiment: MTT solid tumor cell growth inhibition, 72 h; type: cell-based, human; conditions: Homo sapiens, PANC-1, 72 h; for IC50: read-out: IC50; for IC90: read-out: IC90
Protocol: as §2, §3

[3] = system: K562/adr (drug-resistant, chronic myeloid leukemia, CML); experiment: MTT leukemia cell growth inhibition, 72 h; type: cell-based, human; conditions: Homo sapiens, K562/Adr; for IC50: read-out: IC50; for IC90: read-out: IC90
From the text: (§4) Leukemia cell lines: K562/adr (drug-resistant, chronic myeloid leukemia, CML), NB4 (acute promyelocytic leukemia, AML), Kasumi-1 (acute myeloid leukemia M2 type, AML-M2), Jurkat (acute lymphoblastic leukemia, ALL), all of which are donated by Cancer Research Institute of Zhejiang University, China; and H9 (acute lymphoblastic leukemia, ALL), which is purchased from China Center for Type Culture Collection.
as §1, with “method. In this experiment, the cell viability in control group (not treated with any compound) is set as 100%.” for “method.”

[4] = system: H9 (acute lymphoblastic leukemia, ALL); experiment: MTT leukemia cell growth inhibition, 72 h; type: cell-based, human; conditions: Homo sapiens, H9, 72 h; for IC50: read-out: IC50; for IC90: read-out: IC90
From the text: as §4
as §1, with “method. In this experiment, the cell viability in control group (not treated with any compound) is set as 100%.” for “method.”

[5] = system: NB4 (acute promyelocytic leukemia, AML); experiment: MTT leukemia cell growth inhibition, 72 h; type: cell-based, human; conditions: Homo sapiens, NB4, 72 h; for IC50: read-out: IC50; for IC90: read-out: IC90
From the text: as §4
as §1, with “method. In this experiment, the cell viability in control group (not treated with any compound) is set as 100%.” for “method.”

[6] = system: Jurkat (acute lymphoblastic leukemia, ALL); experiment: MTT leukemia cell growth inhibition, 72 h; type: cell-based, human; conditions: Homo sapiens; for IC50: read-out: IC50; for IC90: read-out: IC90
From the text: as §4
as §1, with “method. In this experiment, the cell viability in control group (not treated with any compound) is set as 100%.” for “method.”

[7] = system: Kasumi-1 (acute myeloid leukemia M2 type, AML-M2); experiment: MTT leukemia cell growth inhibition, 72 h; type: cell-based, human; conditions: Homo sapiens, Kasumi-1, 72 h; for IC50: read-out: IC50; for IC90: read-out: IC90
From the text: as §4
as §1, with “method. In this experiment, the cell viability in control group (not treated with any compound) is set as 100%.” for “method.”

[8] = system: RKO (human colon adenocarcinoma cell); experiment: MTT solid tumor cell growth inhibition, 72 h; type: cell-based; conditions: Homo sapiens; for IC50: read-out: IC50; for IC90: read-out: IC90
Protocol: as §2, §3

[9] = system: Huh7 (human liver cancer cell); experiment: MTT solid tumor cell growth inhibition, 72 h; type: cell-based; conditions: Homo sapiens, Huh-7, Huh7, 72 h; for IC50: read-out: IC50; for IC90: read-out: IC90
Protocol: as §2, §3

[10] = system: Becap37 (human breast cancer cell); experiment: MTT solid tumor cell growth inhibition, 72 h; type: cell-based; conditions: Homo sapiens, Becap37, 72 h; for IC50: read-out: IC50; for IC90: read-out: IC90
Protocol: as §2, §3

A549 (human lung cancer) = experiment: MTT solid tumor cell growth inhibition, 72 h; type: cell-based; conditions: Homo sapiens, A549, 72 h; for IC50: read-out: IC50; for IC90: read-out: IC90
Protocol: as §2, §3

[11] = system: MGC 803 (human gastric cancer cell); experiment: MTT solid tumor cell growth inhibition, 72 h; type: cell-based; conditions: Homo sapiens, MGC 803, 72 h; for IC50: read-out: IC50; for IC90: read-out: IC90
Protocol: as §2, §3

Row | Structure (SMILES) | IC50 [1] | IC90 [1] | IC50 (MG63 (osteosarcoma)) | IC90 (MG63 (osteosarcoma)) | IC50 [2] | IC90 [2] | IC50 [3] | IC90 [3] | IC50 [4] | IC90 [4] | IC50 [5] | IC90 [5] | IC50 [6] | IC90 [6] | IC50 [7] | IC90 [7] | IC50 [8] | IC90 [8] | IC50 [9] | IC90 [9] | also measured
1 | COC1=C[C@]23CCCN2CCc2cc4c(cc2[C@@H]3[C@@H]1OC(=O)[C@@](O)(CCCC(C)(C)O)CC(=O)N1CCN(C)CC1)OCO4 [BS-HH-009] | 3.6 µg/mL (≈ 5.87 µM) | 16 µg/mL (≈ 26.1 µM) | 1.72 µg/mL (≈ 2.8 µM) | > 16 µg/mL | 16 µg/mL (≈ 26.1 µM) | > 16 µg/mL | > 16 µg/mL | > 16 µg/mL | 8 µg/mL (≈ 13 µM) | > 16 µg/mL | 2.97 µg/mL (≈ 4.84 µM) | 11.2 µg/mL (≈ 18.2 µM) | 3 µg/mL (≈ 4.89 µM) | > 16 µg/mL | 8.54 µg/mL (≈ 13.9 µM) | > 16 µg/mL | 1.46 µg/mL (≈ 2.38 µM) | 5.72 µg/mL (≈ 9.32 µM) | 6.7 µg/mL (≈ 10.9 µM) | > 16 µg/mL | IC50 [10]: 3.09 µg/mL (≈ 5.03 µM); IC90 [10]: > 16 µg/mL; IC50 (A549 (human lung cancer)): 10.2 µg/mL (≈ 16.7 µM); IC90 (A549 (human lung cancer)): > 16 µg/mL
2 | COC1=C[C@]23CCCN2CCc2cc4c(cc2[C@@H]3[C@@H]1OC(=O)[C@@](O)(CCCC(C)(C)O)CC(=O)N1CCOCC1)OCO4 [BS-HH-011] | 6.71 µg/mL (≈ 11.2 µM) | > 16 µg/mL | 6.33 µg/mL (≈ 10.5 µM) | > 16 µg/mL | > 16 µg/mL | > 16 µg/mL | > 16 µg/mL | > 16 µg/mL | > 16 µg/mL | > 16 µg/mL | 3.22 µg/mL (≈ 5.36 µM) | 9.54 µg/mL (≈ 15.9 µM) | 6.7 µg/mL (≈ 11.2 µM) | > 16 µg/mL | 8.28 µg/mL (≈ 13.8 µM) | > 16 µg/mL | 4 µg/mL (≈ 6.66 µM) | > 16 µg/mL | 16 µg/mL (≈ 26.6 µM) | > 16 µg/mL | IC50 [10]: 11.3 µg/mL (≈ 18.8 µM); IC90 [10]: > 16 µg/mL; IC50 (A549 (human lung cancer)): > 16 µg/mL; IC90 (A549 (human lung cancer)): > 16 µg/mL
3 | COC1=C[C@]23CCCN2CCc2cc4c(cc2[C@@H]3[C@@H]1OC(=O)[C@@](O)(CCCC(C)(C)O)CC(=O)N1CCSCC1)OCO4 [BS-HH-014] | 2.43 µg/mL (≈ 3.94 µM) | 16 µg/mL (≈ 25.9 µM) | 6.24 µg/mL (≈ 10.1 µM) | > 16 µg/mL | 8 µg/mL (≈ 13 µM) | > 16 µg/mL | > 16 µg/mL | > 16 µg/mL | 8.25 µg/mL (≈ 13.4 µM) | > 16 µg/mL | 1.29 µg/mL (≈ 2.09 µM) | 3.7 µg/mL (≈ 6 µM) | 2 µg/mL (≈ 3.24 µM) | > 16 µg/mL | 1.33 µg/mL (≈ 2.16 µM) | 8.61 µg/mL (≈ 14 µM) | 1.25 µg/mL (≈ 2.03 µM) | 5.36 µg/mL (≈ 8.69 µM) | 4 µg/mL (≈ 6.49 µM) | > 16 µg/mL | IC50 [10]: 6.89 µg/mL (≈ 11.2 µM); IC90 [10]: > 16 µg/mL; IC50 (A549 (human lung cancer)): 9.79 µg/mL (≈ 15.9 µM); IC90 (A549 (human lung cancer)): > 16 µg/mL; IC50 [11]: 2.92 µg/mL (≈ 4.73 µM); IC90 [11]: 15.5 µg/mL (≈ 25.1 µM)
4 | COC1=C[C@]23CCCN2CCc2cc4c(cc2[C@@H]3[C@@H]1OC(=O)[C@@](O)(CCCC(C)(C)O)CC(=O)N1CC=CC1)OCO4 [BS-HH-018] | 0.6 µg/mL (≈ 1.03 µM) | 5.66 µg/mL (≈ 9.71 µM) | 0.96 µg/mL (≈ 1.65 µM) | > 16 µg/mL | 2.89 µg/mL (≈ 4.96 µM) | > 16 µg/mL | 7.77 µg/mL (≈ 13.3 µM) | > 16 µg/mL | 2.69 µg/mL (≈ 4.62 µM) | > 16 µg/mL | 0.38 µg/mL (≈ 0.652 µM) | 1 µg/mL (≈ 1.72 µM) | 0.88 µg/mL (≈ 1.51 µM) | 16 µg/mL (≈ 27.5 µM) | 0.47 µg/mL (≈ 0.807 µM) | 2.32 µg/mL (≈ 3.98 µM) | 0.34 µg/mL (≈ 0.583 µM) | 1.5 µg/mL (≈ 2.57 µM) | 2.5 µg/mL (≈ 4.29 µM) | > 16 µg/mL | IC50 [10]: 1.7 µg/mL (≈ 2.92 µM); IC90 [10]: > 16 µg/mL; IC50 (A549 (human lung cancer)): 4.09 µg/mL (≈ 7.02 µM); IC90 (A549 (human lung cancer)): > 16 µg/mL; IC50 [11]: 0.94 µg/mL (≈ 1.61 µM); IC90 [11]: 4.96 µg/mL (≈ 8.51 µM)
